Measurements taken from ChEMBL document CHEMBL1817568, “Novel hybrids of fluconazole and furanones: design, synthesis and antifungal activity” (2011).
Converted amounts (≈) assume the structure as drawn. The source made the active and inactive calls. The rule behind the calls is not given here.

Tests used:
Pichia kudriavzevii [1] = test: Antifungal activity against Candida krusei ATCC 6258 at 16 ug/ml by broth dilution method; format: functional, organism-based
Aspergillus fumigatus [2] = test: Antifungal activity against Aspergillus fumigatus ATCC 46645 at 16 ug/ml by broth dilution method; format: functional, organism-based
Cryptococcus neoformans [3] = test: Antifungal activity against Cryptococcus neoformans ATCC 34664 at 16 ug/ml by broth dilution method; format: functional, organism-based
Fusarium proliferatum [4] = test: Antifungal activity against Fusarium proliferatum ATCC 10052 at 16 ug/ml by broth dilution method; format: functional, organism-based
Candida tropicalis [5] = test: Antifungal activity against Candida tropicalis ATCC 750 at 16 ug/ml by broth dilution method; format: functional, organism-based
Nakaseomyces glabratus [6] = test: Antifungal activity against Candida glabrata ATCC 90030 by broth dilution method; format: functional
Aspergillus niger [7] = test: Antifungal activity against Aspergillus niger ATCC 16404 at 16 ug/ml by broth dilution method; format: functional, organism-based
Candida albicans [8] = test: Antifungal activity against Candida albicans ATCC 24433 by broth dilution method; format: functional
Aspergillus niger [9] = test: Antifungal activity against Aspergillus niger ATCC 16404 at 8 ug/ml by broth dilution method; format: functional, organism-based
Candida albicans [10] = test: Antifungal activity against Candida albicans ATCC 24433 at 8 ug/ml by broth dilution method; format: functional, organism-based
Aspergillus fumigatus [11] = test: Antifungal activity against Aspergillus fumigatus ATCC 46645 at 8 ug/ml by broth dilution method; format: functional, organism-based
Cryptococcus neoformans [12] = test: Antifungal activity against Cryptococcus neoformans ATCC 34664 at 8 ug/ml by broth dilution method; format: functional, organism-based
Fusarium proliferatum [13] = test: Antifungal activity against Fusarium proliferatum ATCC 10052 at 8 ug/ml by broth dilution method; format: functional, organism-based
Pichia kudriavzevii [14] = test: Antifungal activity against Candida krusei ATCC 6258 at 8 ug/ml by broth dilution method; format: functional, organism-based
Nakaseomyces glabratus [15] = test: Antifungal activity against Candida glabrata ATCC 90030 at 8 ug/ml by broth dilution method; format: functional, organism-based
Fusarium proliferatum [16] = test: Antifungal activity against Fusarium proliferatum ATCC 10052 at 128 ug/ml by broth dilution method; format: functional, organism-based
Aspergillus fumigatus [17] = test: Antifungal activity against Aspergillus fumigatus ATCC 46645 at 128 ug/ml by broth dilution method; format: functional, organism-based
Aspergillus niger [18] = test: Antifungal activity against Aspergillus niger ATCC 16404 at 128 ug/ml by broth dilution method; format: functional, organism-based
Pichia kudriavzevii [19] = test: Antifungal activity against Candida krusei ATCC 6258 at 128 ug/ml by broth dilution method; format: functional, organism-based
Cryptococcus neoformans [20] = test: Antifungal activity against Cryptococcus neoformans ATCC 34664 by broth dilution method; format: functional
Candida tropicalis [21] = test: Antifungal activity against Candida tropicalis ATCC 750 at 128 ug/ml by broth dilution method; format: functional, organism-based
Candida tropicalis [22] = test: Antifungal activity against Candida tropicalis ATCC 750 by broth dilution method; format: functional
Pichia kudriavzevii [23] = test: Antifungal activity against Candida krusei ATCC 6258 at 32 ug/ml by broth dilution method; format: functional, organism-based
Aspergillus fumigatus [24] = test: Antifungal activity against Aspergillus fumigatus ATCC 46645 at 32 ug/ml by broth dilution method; format: functional, organism-based
Aspergillus niger [25] = test: Antifungal activity against Aspergillus niger ATCC 16404 at 32 ug/ml by broth dilution method; format: functional, organism-based
Cryptococcus neoformans [26] = test: Antifungal activity against Cryptococcus neoformans ATCC 34664 at 32 ug/ml by broth dilution method; format: functional, organism-based
Fusarium proliferatum [27] = test: Antifungal activity against Fusarium proliferatum ATCC 10052 at 32 ug/ml by broth dilution method; format: functional, organism-based
Aspergillus fumigatus [28] = test: Antifungal activity against Aspergillus fumigatus ATCC 46645 at 2 ug/ml by broth dilution method; format: functional, organism-based
Aspergillus niger [29] = test: Antifungal activity against Aspergillus niger ATCC 16404 at 2 ug/ml by broth dilution method; format: functional, organism-based
Fusarium proliferatum [30] = test: Antifungal activity against Fusarium proliferatum ATCC 10052 at 2 ug/ml by broth dilution method; format: functional, organism-based
Pichia kudriavzevii [31] = test: Antifungal activity against Candida krusei ATCC 6258 at 2 ug/ml by broth dilution method; format: functional, organism-based
Candida albicans [32] = test: Antifungal activity against Candida albicans ATCC 24433 at 2 ug/ml by broth dilution method; format: functional, organism-based
Candida tropicalis [33] = test: Antifungal activity against Candida tropicalis ATCC 750 at 2 ug/ml by broth dilution method; format: functional, organism-based
Cryptococcus neoformans [34] = test: Antifungal activity against Cryptococcus neoformans ATCC 34664 at 2 ug/ml by broth dilution method; format: functional, organism-based
Aspergillus niger [35] = test: Antifungal activity against Aspergillus niger ATCC 16404 by broth dilution method; format: functional
Fusarium proliferatum [36] = test: Antifungal activity against Fusarium proliferatum ATCC 10052 by broth dilution method; format: functional
Pichia kudriavzevii [37] = test: Antifungal activity against Candida krusei ATCC 6258 by broth dilution method; format: functional
Aspergillus fumigatus [38] = test: Antifungal activity against Aspergillus fumigatus ATCC 46645 by broth dilution method; format: functional
Nakaseomyces glabratus [39] = test: Antifungal activity against Candida glabrata ATCC 90030 at 2 ug/ml by broth dilution method; format: functional, organism-based
Candida albicans [40] = test: Antifungal activity against Candida albicans ATCC 24433 at 32 ug/ml by broth dilution method; format: functional, organism-based
Nakaseomyces glabratus [41] = test: Antifungal activity against Candida glabrata ATCC 90030 at 32 ug/ml by broth dilution method; format: functional, organism-based
Candida tropicalis [42] = test: Antifungal activity against Candida tropicalis ATCC 750 at 32 ug/ml by broth dilution method; format: functional, organism-based
Nakaseomyces glabratus [43] = test: Antifungal activity against Candida glabrata ATCC 90030 at 16 ug/ml by broth dilution method; format: functional, organism-based
Candida albicans [44] = test: Antifungal activity against Candida albicans ATCC 24433 at 16 ug/ml by broth dilution method; format: functional, organism-based
Nakaseomyces glabratus [45] = test: Antifungal activity against Candida glabrata ATCC 90030 at 128 ug/ml by broth dilution method; format: functional, organism-based
Candida albicans [46] = test: Antifungal activity against Candida albicans ATCC 24433 at 128 ug/ml by broth dilution method; format: functional, organism-based
Cryptococcus neoformans [47] = test: Antifungal activity against Cryptococcus neoformans ATCC 34664 at 128 ug/ml by broth dilution method; format: functional, organism-based
Candida tropicalis [48] = test: Antifungal activity against Candida tropicalis ATCC 750 at 8 ug/ml by broth dilution method; format: functional, organism-based

## COc1cc(/C=C2\SC(=S)NC2=O)ccc1OCC(O)(Cn1cncn1)c1ccc(F)cc1F (racemic)
Pichia kudriavzevii [1]
  Activity: inactive
Aspergillus fumigatus [2]
  Activity: inactive
Cryptococcus neoformans [3]
  Activity: inactive
Fusarium proliferatum [4]
  Activity: inactive
Candida tropicalis [5]
  Activity: inactive
Nakaseomyces glabratus [6]
  MIC50: 8 µg/mL (≈ 15.9 µM)
Aspergillus niger [7]
  Activity: inactive
Candida albicans [8]
  MIC50: 1 µg/mL (≈ 1.98 µM)

## COc1ccc(/C=C2\SC(=S)NC2=O)cc1OCC(O)(Cn1cncn1)c1ccc(F)cc1F (racemic)
Aspergillus niger [9]
  Activity: inactive
Candida albicans [10]
  Activity: inactive
Aspergillus fumigatus [11]
  Activity: inactive
Cryptococcus neoformans [12]
  Activity: inactive
Fusarium proliferatum [13]
  Activity: inactive
Pichia kudriavzevii [14]
  Activity: inactive
Nakaseomyces glabratus [15]
  Activity: inactive

## COc1ccc(C=O)cc1OCC(O)(Cn1cncn1)c1ccc(F)cc1F (racemic)
Fusarium proliferatum [16]
  Activity: inactive
Aspergillus fumigatus [17]
  Activity: inactive
Aspergillus niger [18]
  Activity: inactive
Pichia kudriavzevii [19]
  Activity: inactive
Cryptococcus neoformans [20]
  MIC50: 16 µg/mL (≈ 41.1 µM)
Nakaseomyces glabratus [6]
  MIC50: 2 µg/mL (≈ 5.14 µM)
Candida albicans [8]
  MIC50: 2 µg/mL (≈ 5.14 µM)
Candida tropicalis [21]
  Activity: inactive

## CC1(O)OC(=O)C(c2ccc(OCC(O)(Cn3cncn3)c3ccc(F)cc3F)cc2)=C1c1ccc(F)cc1F (racemic)
Candida tropicalis [22]
  MIC50: 8 µg/mL (≈ 14.4 µM)
Pichia kudriavzevii [1]
  Activity: inactive
Aspergillus fumigatus [2]
  Activity: inactive
Cryptococcus neoformans [3]
  Activity: inactive
Fusarium proliferatum [4]
  Activity: inactive
Nakaseomyces glabratus [6]
  MIC50: 2 µg/mL (≈ 3.6 µM)
Aspergillus niger [7]
  Activity: inactive
Candida albicans [8]
  MIC50: 2 µg/mL (≈ 3.6 µM)

## O=C1NC(=S)S/C1=C\c1ccc(OCC(O)(Cn2cncn2)c2ccc(F)cc2F)cc1 (racemic)
Candida tropicalis [22]
  MIC50: 8 µg/mL (≈ 16.9 µM)
Pichia kudriavzevii [23]
  Activity: inactive
Nakaseomyces glabratus [6]
  MIC50: 4 µg/mL (≈ 8.43 µM)
Candida albicans [8]
  MIC50: 0.5 µg/mL (≈ 1.05 µM)
Aspergillus fumigatus [24]
  Activity: inactive
Aspergillus niger [25]
  Activity: inactive
Cryptococcus neoformans [26]
  Activity: inactive
Fusarium proliferatum [27]
  Activity: inactive

## COc1cc(/C=C2\N=C(c3ccccc3)OC2=O)cc(OC)c1OCC(O)(Cn1cncn1)c1ccc(F)cc1F (racemic)
Aspergillus fumigatus [28]
  Activity: inactive
Aspergillus niger [29]
  Activity: inactive
Fusarium proliferatum [30]
  Activity: inactive
Pichia kudriavzevii [31]
  Activity: inactive
Candida albicans [32]
  Activity: inactive
Candida tropicalis [33]
  Activity: inactive
Cryptococcus neoformans [34]
  Activity: inactive

## C[C@@H]1[C@H](O)[C@@H](C)/C=C/C=C/C=C/C=C/C=C/C=C/C=C/[C@H](O[C@@H]2O[C@H](C)[C@@H](O)[C@H](N)[C@@H]2O)C[C@@H]2O[C@](O)(C[C@@H](O)C[C@@H](O)[C@H](O)CC[C@@H](O)C[C@@H](O)CC(=O)O[C@H]1C)C[C@H](O)[C@H]2C(=O)O [AMPHOTERICIN B]
Candida tropicalis [22]
  MIC50: 0.5 µg/mL (≈ 0.541 µM)
Aspergillus niger [35]
  MIC50: 0.25 µg/mL (≈ 0.271 µM)
Fusarium proliferatum [36]
  MIC50: 2 µg/mL (≈ 2.16 µM)
Pichia kudriavzevii [37]
  MIC50: 0.5 µg/mL (≈ 0.541 µM)
Cryptococcus neoformans [20]
  MIC50: 0.5 µg/mL (≈ 0.541 µM)
Nakaseomyces glabratus [6]
  MIC50: 0.25 µg/mL (≈ 0.271 µM)
Aspergillus fumigatus [38]
  MIC50: 0.5 µg/mL (≈ 0.541 µM)
Candida albicans [8]
  MIC50: 0.25 µg/mL (≈ 0.271 µM)

## COc1ccc(C2=C(c3ccc(Br)cc3)/C(=C/c3ccc(OCC(O)(Cn4cncn4)c4ccc(F)cc4F)cc3)OC2=O)cc1 (racemic)
Aspergillus fumigatus [28]
  Activity: inactive
Aspergillus niger [29]
  Activity: inactive
Fusarium proliferatum [30]
  Activity: inactive
Nakaseomyces glabratus [39]
  Activity: inactive
Pichia kudriavzevii [31]
  Activity: inactive
Candida albicans [32]
  Activity: inactive
Candida tropicalis [33]
  Activity: inactive
Cryptococcus neoformans [34]
  Activity: inactive

## COc1ccc(C2=C(c3ccc(Br)cc3)COC2=O)cc1
Candida albicans [40]
  Activity: inactive
Nakaseomyces glabratus [41]
  Activity: inactive
Pichia kudriavzevii [23]
  Activity: inactive
Candida tropicalis [42]
  Activity: inactive
Aspergillus fumigatus [24]
  Activity: inactive
Aspergillus niger [25]
  Activity: inactive
Cryptococcus neoformans [26]
  Activity: inactive
Fusarium proliferatum [27]
  Activity: inactive

## O=C1OCC(c2ccc(F)cc2F)=C1c1ccc(Cl)cc1
Aspergillus niger [9]
  Activity: inactive
Candida albicans [10]
  Activity: inactive
Aspergillus fumigatus [11]
  Activity: inactive
Cryptococcus neoformans [12]
  Activity: inactive
Fusarium proliferatum [13]
  Activity: inactive
Pichia kudriavzevii [14]
  Activity: inactive
Nakaseomyces glabratus [15]
  Activity: inactive

## COc1cc(/C=C2\SC(=S)NC2=O)cc(OC)c1OCC(O)(Cn1cncn1)c1ccc(F)cc1F (racemic)
Pichia kudriavzevii [1]
  Activity: inactive
Nakaseomyces glabratus [43]
  Activity: inactive
Aspergillus fumigatus [2]
  Activity: inactive
Candida albicans [44]
  Activity: inactive
Cryptococcus neoformans [3]
  Activity: inactive
Fusarium proliferatum [4]
  Activity: inactive
Candida tropicalis [5]
  Activity: inactive
Aspergillus niger [7]
  Activity: inactive

## COc1cc(CC(=O)O)ccc1OCC(O)(Cn1cncn1)c1ccc(F)cc1F (racemic)
Nakaseomyces glabratus [45]
  Activity: inactive
Candida albicans [46]
  Activity: inactive
Cryptococcus neoformans [47]
  Activity: inactive
Fusarium proliferatum [16]
  Activity: inactive
Aspergillus fumigatus [17]
  Activity: inactive
Aspergillus niger [18]
  Activity: inactive
Pichia kudriavzevii [19]
  Activity: inactive
Candida tropicalis [21]
  Activity: inactive

## COc1cc(C2=C(c3ccc(F)cc3F)COC2=O)ccc1OCC(O)(Cn1cncn1)c1ccc(F)cc1F (racemic)
Aspergillus niger [9]
  Activity: inactive
Aspergillus fumigatus [11]
  Activity: inactive
Cryptococcus neoformans [12]
  Activity: inactive
Candida tropicalis [48]
  Activity: inactive
Fusarium proliferatum [13]
  Activity: inactive
Nakaseomyces glabratus [6]
  MIC50: 1 µg/mL (≈ 1.8 µM)
Candida albicans [8]
  MIC50: 1 µg/mL (≈ 1.8 µM)
Pichia kudriavzevii [14]
  Activity: inactive

## O=C1OCC(c2cccs2)=C1c1ccc(OCC(O)(Cn2cncn2)c2ccc(F)cc2F)cc1 (racemic)
Candida tropicalis [22]
  MIC50: 2 µg/mL (≈ 4.04 µM)
Aspergillus niger [9]
  Activity: inactive
Aspergillus fumigatus [11]
  Activity: inactive
Cryptococcus neoformans [12]
  Activity: inactive
Fusarium proliferatum [13]
  Activity: inactive
Nakaseomyces glabratus [6]
  MIC50: 0.5 µg/mL (≈ 1.01 µM)
Candida albicans [8]
  MIC50: 0.5 µg/mL (≈ 1.01 µM)
Pichia kudriavzevii [14]
  Activity: inactive
